# Measured values reported in patent US20250082648A1, “COMPOSITIONS AND METHODS FOR ENHANCING KRAS INHIBITOR OR SHP2 INHIBITOR EFFICACY” (New York University, priority 2023, published 2025).
# System: H2122 cells
# Experiment: CRISPR/Cas9 synthetic lethal screen with TNO155 alone
# Format: cell-based, human
# Conditions: for neg|lfc: H2122 cells; for neg|score / pos|lfc: H2122
smiles,measurement,setting,value
C[C@@H]1OCC2(CCN(c3cnc(Sc4ccnc(N)c4Cl)c(N)n3)CC2)[C@@H]1N [TNO155],neg|lfc,AATF knockout,−0.9199
same,neg|lfc,ABT1 knockout,−1.0094
same,neg|lfc,ADAT3 knockout,−1.2793
same,neg|score,ADSL knockout,0.0007395
same,neg|lfc,ADSS knockout,−1.8117
same,neg|score,ANAPC2 knockout,0.0008681
same,neg|lfc,ARIH1 knockout,−1.1405
same,neg|score,ASF1A knockout,0.0009774
same,neg|score,ASH2L knockout,0.000721
same,neg|lfc,ATP5B knockout,−1.2287
same,neg|lfc,ATP6V0B knockout,−1.1768
same,neg|score,ATP6V1D knockout,0.0008813
same,neg|score,ATP6V1E1 knockout,0.0009389
same,neg|lfc,ATRX knockout,−1.7393
same,neg|lfc,AURKA knockout,−1.3711
same,neg|lfc,BCAS2 knockout,−0.7436
same,neg|score,BCCIP knockout,0.0009424
same,neg|score,C7orf26 knockout,0.0008313
same,neg|score,C12orf45 knockout,0.0008272
same,neg|score,C16orf59 knockout,0.0007587
same,neg|score,C16orf80 knockout,0.000879
same,neg|score,C17orf70 knockout,0.0008636
same,neg|lfc,CCDC115 knockout,−1.2834
same,neg|score,CCDC174 knockout,0.0007499
same,neg|lfc,CEBPZ knockout,−1.2677
same,neg|score,CENPL knockout,0.000924
same,neg|lfc,CHMP6 knockout,−1.2891
same,neg|score,CLP1 knockout,0.000693
same,neg|lfc,CNOT7 knockout,−0.9274
same,neg|score,COPS4 knockout,0.0009634
same,neg|lfc,COPS5 knockout,−1.8379
same,neg|lfc,COPS8 knockout,−0.9744
same,neg|score,COX10 knockout,0.0009358
same,neg|lfc,COX11 knockout,−0.6679
same,neg|lfc,CSNK2B knockout,−1.5191
same,neg|score,CTNNBL1 knockout,0.0007324
same,neg|score,DCTN1 knockout,0.0008908
same,neg|lfc,DCTN5 knockout,−1.6239
same,neg|lfc,DCTN6 knockout,−1.5775
same,neg|lfc,DDOST knockout,−0.981
same,neg|lfc,DDX52 knockout,−1.1513
same,neg|score,DDX54 knockout,0.0009466
same,neg|score,DGCR8 knockout,0.0008832
same,neg|lfc,DPH5 knockout,−1.0575
same,neg|lfc,DPY30 knockout,−0.7867
same,neg|score,DR1 knockout,0.0008727
same,neg|lfc,DUT knockout,−0.9153
same,neg|lfc,DYNC1I2 knockout,−2.041
same,neg|score,EIF2B1 knockout,0.0008906
same,neg|lfc,EIF2B5 knockout,−1.2117
same,neg|score,EXOC5 knockout,0.0008724
same,neg|lfc,EXOSC8 knockout,−1.0794
same,neg|lfc,FASTKD5 knockout,−0.9103
same,neg|score,FBL knockout,0.0009079
same,neg|score,FBXL5 knockout,0.0009454
same,neg|score,FDX1L knockout,0.0007487
same,neg|lfc,FOXRED1 knockout,−0.9267
same,neg|lfc,FSCN1 knockout,−0.9432
same,neg|lfc,FTSJ3 knockout,−1.5605
same,neg|score,FXN knockout,0.000775
same,neg|lfc,FZD9 knockout,−1.077
same,neg|score,GARS knockout,0.0008542
same,neg|lfc,GEMIN4 knockout,−1.3849
same,neg|score,GINS1 knockout,0.0009186
same,neg|lfc,GSG2 knockout,−1.139
same,neg|lfc,GTF2F2 knockout,−0.9729
same,neg|lfc,GTF3C1 knockout,−1.0865
same,neg|score,GTPBP4 knockout,0.0008361
same,neg|lfc,HEATR2 knockout,−0.6955
same,neg|lfc,HGS knockout,−0.9397
same,neg|lfc,HNF1B knockout,−0.822
same,neg|lfc,HSPA8 knockout,−2.0457
same,neg|score,HSPA14 knockout,0.0009105
same,neg|lfc,IDI1 knockout,−0.7039
same,neg|score,ILF3 knockout,0.0008338
same,neg|lfc,IMP4 knockout,−1.8118
same,neg|score,IPO13 knockout,0.0008689
same,neg|score,IQGAP3 knockout,0.0008176
same,neg|score,JMJD6 knockout,0.0007183
same,neg|lfc,KANSL3 knockout,−1.734
same,neg|score,KBTBD2 knockout,0.0008277
same,neg|score,KDM2A knockout,0.0008953
same,neg|lfc,KIF18A knockout,−1.181
same,neg|score,KRAS knockout,0.0008327
same,neg|lfc,KRR1 knockout,−1.4982
same,neg|score,LSM3 knockout,0.0008487
same,neg|score,LSM5 knockout,0.0007041
same,neg|lfc,LSM12 knockout,−0.7213
same,neg|score,MBTPS1 knockout,0.0007681
same,neg|score,MCAT knockout,0.0009141
same,neg|score,MCM4 knockout,0.000877
same,neg|lfc,MED11 knockout,−1.4228
same,neg|score,MOGAT3 knockout,0.000754
same,neg|score,MRPL11 knockout,0.0007518
same,neg|lfc,MRPL38 knockout,−1.0939
same,neg|lfc,MRPL50 knockout,−1.0478
same,neg|score,MRPS2 knockout,0.0007231
same,neg|score,MRRF knockout,0.0008379
same,neg|score,MTERFD2 knockout,0.0008506
same,neg|score,MTHFD1 knockout,0.0007217
same,neg|score,MYBBP1A knockout,0.0009866
same,neg|lfc,MYBL2 knockout,−0.6253
same,neg|score,NAA10 knockout,0.0008935
same,neg|score,NASP knockout,0.0009277
same,neg|score,NCAPD2 knockout,0.0009387
same,neg|score,NDUFB9 knockout,0.0007395
same,neg|score,NDUFB10 knockout,0.0009074
same,neg|score,NDUFS1 knockout,0.0007194
same,neg|lfc,NDUFS5 knockout,−0.8577
same,neg|lfc,NEDD8 knockout,−2.4196
same,neg|lfc,NIP7 knockout,−0.8825
same,neg|lfc,NLE1 knockout,−1.8629
same,neg|lfc,NME6 knockout,−1.1709
same,neg|lfc,NOL6 knockout,−1.0733
same,neg|score,NOL8 knockout,0.000711
same,neg|lfc,NPLOC4 knockout,−1.2039
same,neg|score,NRF1 knockout,0.0008548
same,neg|lfc,NSMCE2 knockout,−1.577
same,neg|lfc,NUBP1 knockout,−1.2742
same,neg|lfc,OGT knockout,−1.3076
same,neg|score,OR3A2 knockout,0.0009552
same,neg|lfc,PDHA1 knockout,−0.7499
same,neg|lfc,PGGT1B knockout,−0.821
same,neg|lfc,PI4KA knockout,−1.1904
same,neg|score,PNN knockout,0.0007486
same,neg|score,POLD2 knockout,0.0007896
same,neg|score,POLR3A knockout,0.0008536
same,neg|score,PPIL4 knockout,0.000952
same,neg|lfc,PRKRIR knockout,−1.3008
same,neg|score,PRPF19 knockout,0.0007312
same,neg|score,PRPF38B knockout,0.0009555
same,neg|lfc,PSMA6 knockout,−1.9056
same,neg|score,PSMB4 knockout,0.000768
same,neg|lfc,QARS knockout,−1.1752
same,neg|score,RABGGTA knockout,0.0007119
same,neg|lfc,RABIF knockout,−1.3292
same,neg|lfc,RANBP1 knockout,−0.7938
same,neg|lfc,RBM10 knockout,−1.4299
same,neg|lfc,RBM48 knockout,−1.4768
same,neg|score,RBX1 knockout,0.0008383
same,neg|score,RFC2 knockout,0.0008264
same,neg|score,RNASEH1 knockout,0.000903
same,neg|lfc,RNF20 knockout,−0.9142
same,neg|score,RNF168 knockout,0.0008246
same,neg|score,RNPS1 knockout,0.0009345
same,neg|score,RPF2 knockout,0.0009481
same,neg|lfc,RPL7 knockout,−1.3947
same,neg|lfc,RPL18A knockout,−1.5316
same,neg|lfc,RPL35 knockout,−0.8092
same,neg|lfc,RPP30 knockout,−1.2535
same,neg|score,RPS2 knockout,0.0008275
same,neg|lfc,RPS8 knockout,−2.8705
same,neg|lfc,RRM1 knockout,−1.5038
same,neg|score,SASS6 knockout,0.0008932
same,neg|lfc,SKA2 knockout,−1.5851
same,neg|lfc,SLC39A14 knockout,−0.9135
same,neg|score,SMARCB1 knockout,0.0008764
same,neg|score,SOD1 knockout,0.0007147
same,neg|lfc,SRPRB knockout,−0.9129
same,neg|score,SUPT4H1 knockout,0.0007007
same,neg|lfc,SUZ12 knockout,−0.9357
same,neg|lfc,TARDBP knockout,−1.4541
same,neg|lfc,TBCA knockout,−1.4702
same,neg|lfc,TBP knockout,−1.6473
same,neg|lfc,TFB1M knockout,−0.9751
same,neg|score,TFDP1 knockout,0.0007958
same,neg|score,TIMM13 knockout,0.0007917
same,neg|score,TMEM130 knockout,0.0009518
same,neg|score,TNPO3 knockout,0.0009376
same,neg|score,TRIT1 knockout,0.0007446
same,neg|lfc,TSR1 knockout,−1.335
same,neg|score,TTC27 knockout,0.0008097
same,neg|score,TTI1 knockout,0.0008319
same,neg|score,TUBE1 knockout,0.0008874
same,neg|score,TUT1 knockout,0.0008619
same,neg|lfc,TXNL4A knockout,−1.8929
same,neg|score,TYMS knockout,0.0007567
same,neg|lfc,UBC knockout,−1.0724
same,neg|score,UBE2I knockout,0.0008281
same,neg|lfc,UBR4 knockout,−1.0947
same,neg|lfc,UBR5 knockout,−1.3884
same,neg|score,UBTF knockout,0.0007853
same,neg|lfc,UQCRC2 knockout,−1.0409
same,neg|lfc,UTP6 knockout,−2.6455
same,neg|score,UTP20 knockout,0.0007152
same,neg|score,VMA21 knockout,0.000773
same,neg|lfc,VPS18 knockout,−1.3116
same,neg|lfc,VPS53 knockout,−0.6999
same,neg|lfc,VPS72 knockout,−0.5497
same,neg|score,WDHD1 knockout,0.0009781
same,neg|score,WDR3 knockout,0.0009589
same,neg|score,WDR18 knockout,0.0007708
same,neg|lfc,WNK1 knockout,−1.0645
same,neg|score,WRAP53 knockout,0.0007984
same,neg|score,XPR1 knockout,0.000881
same,neg|lfc,XRCC5 knockout,−1.6679
same,neg|score,ZBTB11 knockout,0.0007214
same,neg|lfc,ZCCHC9 knockout,−1.957
same,neg|score,ZNF131 knockout,0.0008989
same,neg|lfc,ZNRD1 knockout,−1.5763
same,pos|lfc,gene ACTB,−1.1591
same,pos|lfc,gene ALG3,−0.5782
same,pos|lfc,gene ANAPC15,−1.2923
same,pos|lfc,gene AP2S1,−1.3206
same,pos|lfc,gene ARID4B,−0.9143
same,pos|lfc,gene BRCA1,−0.6966
same,pos|lfc,gene BUB1B,−0.8094
same,pos|lfc,gene C1D,−1.3624
same,pos|lfc,gene C16orf72,−2.2251
same,pos|lfc,gene CABIN1,−0.7818
same,pos|lfc,gene COPS6,−1.1267
same,pos|lfc,gene CS,−1.0352
same,pos|lfc,gene DARS2,−1.095
same,pos|lfc,gene DCLRE1B,−0.6801
same,pos|lfc,gene DDX49,−2.1703
same,pos|lfc,gene DYNC1H1,−1.3605
same,pos|lfc,gene DYNLRB1,−1.1311
same,pos|lfc,gene EIF2S1,−1.3093
same,pos|lfc,gene EIF2S2,−1.5347
same,pos|lfc,gene EIF5AL1,−0.8423
same,pos|lfc,gene EIF5B,−1.1819
same,pos|lfc,gene FANCA,−0.6873
same,pos|lfc,gene FANCG,−0.7949
same,pos|lfc,gene FNTB,−0.9877
same,pos|lfc,gene GCN1L1,−0.5542
same,pos|lfc,gene GRWD1,−0.9019
same,pos|lfc,gene GTPBP8,−1.0746
same,pos|lfc,gene HNRNPL,−1.1529
same,pos|lfc,gene HNRNPR,−0.5338
same,pos|lfc,gene KIAA1429,−1.1326
same,pos|lfc,gene LIMS1,−0.8407
same,pos|lfc,gene MMGT1,−0.748
same,pos|lfc,gene MRPL54,−0.8393
same,pos|lfc,gene NDUFB2,−0.8331
same,pos|lfc,gene NDUFC1,−0.9001
same,pos|lfc,gene NOP16,−1.0035
same,pos|lfc,gene PDCD7,−0.9939
same,pos|lfc,gene PDE12,−0.8248
same,pos|lfc,gene PEAR1,−0.6471
same,pos|lfc,gene POLD3,−1.3598
same,pos|lfc,gene POLR1C,−0.9691
same,pos|lfc,gene POLR2F,−1.9506
same,pos|lfc,gene PPHLN1,−0.829
same,pos|lfc,gene PPOX,−0.7508
same,pos|lfc,gene PWP2,−1.0599
same,pos|lfc,gene RIMBP2,−0.4894
same,pos|lfc,gene RMND1,−0.9991
same,pos|lfc,gene RPL3,−1.3237
same,pos|lfc,gene RPS19,−2.0213
same,pos|lfc,gene SEZ6,−0.6228
same,pos|lfc,gene SLC2A1,−0.9368
same,pos|lfc,gene SMC3,−1.7209
same,pos|lfc,gene SMC6,−1.1456
same,pos|lfc,gene SMG5,−1.2307
same,pos|lfc,gene SNRNP40,−1.1024
same,pos|lfc,gene TEX10,−1.3169
same,pos|lfc,gene TIFAB,−0.6891
same,pos|lfc,gene TOMM22,−0.8272
same,pos|lfc,gene TRAPPC4,−1.0187
same,pos|lfc,gene TTI2,−0.8554
same,pos|lfc,gene USP10,−0.902
same,pos|lfc,gene WDR12,−1.1622
same,pos|lfc,gene WDR92,−1.2556
same,pos|lfc,gene ZNHIT6,−1.4893
